Results on one compound are retold here after the NIST ThermoML archive (doi:10.1021/je1005054).

The conditions of this data set: Liquid, Calculated from knudsen effusion weight loss.

± gives the expanded uncertainty stated by the source.

Turning to `O=C1CCCCCN1` [1-aza-2-cycloheptanone], the “vapor or sublimation pressure” value (343 K) is given as 0.0263 ± 0.0041 kPa; the “vapor or sublimation pressure” value (347.9 K) is listed as 0.0372 ± 0.006 kPa; the “vapor or sublimation pressure” value (348 K) was 0.0374 ± 0.006 kPa; the “vapor or sublimation pressure” value (352.9 K) is recorded as 0.0523 ± 0.0086 kPa; the “vapor or sublimation pressure” value (353 K) is reported as 0.0527 ± 0.0087 kPa.

In general, vapor or sublimation pressure refers to the equilibrium pressure above the liquid or solid.
